Assay: xn = mol fraction of the nth substance listed, in the solute-free solvent

CCCCOc1ccc(C(=O)CCN2CCCCC2)cc1.Cl + CCO + CCOC(C)=O
solubility (g/100 g solution)
Conditions | 278.15 K | 283.15 K | 288.15 K | 293.15 K | 298.15 K | 303.15 K | 308.15 K | 313.15 K | 318.15 K | 323.15 K
x2 = 0.1 | 4.4 | 5.22 | 6.12 | 7.23 | 8.43 | 9.93 | 11.7 | 13.6 | 15.8 | 18.4
x2 = 0.2 | 6.73 | 7.77 | 8.92 | 10.3 | 11.8 | 13.6 | 15.6 | 17.8 | 20.4 | 23.2
x2 = 0.3 | 9.22 | 10.6 | 12 | 13.6 | 15.3 | 17.3 | 19.6 | 22 | 24.8 | 27.7
x2 = 0.4 | 11.9 | 13.4 | 15.1 | 17 | 18.9 | 21.2 | 23.7 | 26.4 | 29.3 | 32.4
x2 = 0.5 | 14.7 | 16.5 | 18.3 | 20.4 | 22.6 | 25.2 | 27.9 | 30.8 | 33.9 | 37
x2 = 0.6 | 17.6 | 19.7 | 21.7 | 24.1 | 26.5 | 29.3 | 32.2 | 35.2 | 38.4 | 41.7
x2 = 0.7 | 20.8 | 23.2 | 25.4 | 28 | 30.6 | 33.5 | 36.6 | 39.8 | 43.1 | 46.5
x2 = 0.8 | 24.2 | 26.8 | 29.2 | 32 | 34.7 | 37.8 | 41 | 44.2 | 47.6 | 51
x2 = 0.9 | 27.9 | 30.7 | 33.2 | 36.1 | 39 | 42.2 | 45.5 | 48.8 | 52.2 | 55.5
